The text below walks through data of patent US20030119862A1, “Pharmaceutical combination” (priority 2001, published 2003).

For orientation: IC50 means the midpoint of a concentration-inhibition curve.

This experiment relates to isolated human neutrophils. The experiment can be described thus: Inhibition of fMLP-induced elastase release from isolated human neutrophils. Type of experiment: cell-based. The note with it: read-out: Inhibition of elastase release (IC50). The method, then:
Test data—Inhibition of Elastase Release from Isolated Human Neutrophils
The dextran/blood was mixed gently by inversion and left to stand at room temperature for 45 minutes to allow erythrocyte sedimentation. Aliquots of 16 ml from the leukocyte-rich supernatant were overlaid on 10 ml Ficoll-Hypaque cushions in 50 ml polypropylene centrifuge tubes and the tubes centrifuged at 400 g for 35 mins at 21° C. The plasma, mononuclear cell layer and Ficoll were removed leaving the granulocyte-rich pellet. The pellets were initially re-suspended in 10 ml ice-cold distilled water for 45 seconds to lyse contaminating red blood cells, followed by the addition of 10 ml of ice-cold double concentrated phosphate buffered saline (PBS) solution to each tube to restore osmolarity. The suspensions were re-centrifuged at 200 g for 10 min at 4° C. to generate neutrophil pellets. The supernatants were removed and the pellets gently resuspended in a total volume of 10 ml ice-cold HBSS using a Pasteur pipette. A differential white cell count was performed on the resulting neutrophil suspension using a Beckman Coulter Ac. T5 haematology analyser and the cells stored on ice until assay. Immediately prior to assay, aliquots of the neutrophil suspension were removed and diluted to a count of 4×10^6 neutrophils/ml ice-cold HBSS containing 2U/ml adenosine deaminase.
Inhibition of fMLP induced elastase release was performed using a 160 μl assay volume in 96-well polystyrene microtiter plates. Elastase release was assayed by measuring the rate of cleavage of the synthetic substrate MeOSuc-Ala-Ala-Pro-Val-pNA. […] Assay plates were incubated at 37° C. for 10 minutes before addition of 8 μl of 2 μM fMLP (in HBSS) and measurement of rate of substrate cleavage was measured at λ=405 nm for 3 minutes at 37° C. Basal elastase, release was determined by the addition of 8 μl HBSS in place of fMLP. […] In the case of the combination experiments, 1000 nM of Ariflo (trade mark) (A) (also known as cilomilast) or 9-cyclopentyl-5,6-dihydro-7-ethyl-3-(2-thienyl)-9H-pyrazolo[3,4-c]-1,2,4-triazolo[4,3-α]pyridine and 9-cyclopentyl-5,6-dihydro-7-ethyl-3-(tert-butyl)-9H-pyrazolo[3,4-c]-1,2,4-triazolo[4,3-c]pyridine (C) were added to the assay and a concentration response curve was then generated for formoterol (F) or salmeterol (S).

Where [1] appears, read: Neutrophil, single agent, fMLP-induced elastase release, isolated human neutrophils.

Like-named read-outs stand apart in the source and are kept apart here.

As for `COc1ccc([C@]2(C#N)CC[C@@H](C(=O)O)CC2)cc1OC1CCCC1` [A, cilomilast], under setting [1], the IC50 was more than 1 µM. `CCc1nn(C2CCCC2)c2c1CCn1c(-c3cccs3)nnc1-2` [C, 9-cyclopentyl-5,6-dihydro-7-ethyl-3-(2-thienyl)-9H-pyrazolo[3,4-c]-1,2,4-triazolo[4,3-α]pyridine and 9-cyclopentyl-5,6-dihydro-7-ethyl-3-(tert-butyl)-9H-pyrazolo[3,4-c]-1,2,4-triazolo[4,3-c]pyridine]: the IC50 (single agent, fMLP-induced elastase release, isolated human neutrophils) was more than 1 µM.

In the case of `COc1ccc(CC(C)NCC(O)c2ccc(O)c(NC=O)c2)cc1` (stereo not shown) [F, N-[2-hydroxy-5-(1-hydroxy-2-((2-(4-methoxyphenyl)-1-methylethyl)amino)ethyl)phenyl]formamide], under “Homo sapiens, Neutrophil”, the IC50 is more than 1 µM. As for `OCc1cc(C(O)CNCCCCCCOCCCCc2ccccc2)ccc1O` (stereo not shown) [S, salmeterol], the IC50 under setting [1] is more than 1 µM.
